Read-outs that look alike come from different tables or passages of the source.
Molecular target: T1, Protein phosphatase 5 (EcPP5, rEcPP5) (Epicauta chinensis, UniProt W0FW71)
T1 construct: recombinant full ORF (499 aa), N-terminal His6 tag, E. coli expressed
T1 sequence (W0FW71 1-499): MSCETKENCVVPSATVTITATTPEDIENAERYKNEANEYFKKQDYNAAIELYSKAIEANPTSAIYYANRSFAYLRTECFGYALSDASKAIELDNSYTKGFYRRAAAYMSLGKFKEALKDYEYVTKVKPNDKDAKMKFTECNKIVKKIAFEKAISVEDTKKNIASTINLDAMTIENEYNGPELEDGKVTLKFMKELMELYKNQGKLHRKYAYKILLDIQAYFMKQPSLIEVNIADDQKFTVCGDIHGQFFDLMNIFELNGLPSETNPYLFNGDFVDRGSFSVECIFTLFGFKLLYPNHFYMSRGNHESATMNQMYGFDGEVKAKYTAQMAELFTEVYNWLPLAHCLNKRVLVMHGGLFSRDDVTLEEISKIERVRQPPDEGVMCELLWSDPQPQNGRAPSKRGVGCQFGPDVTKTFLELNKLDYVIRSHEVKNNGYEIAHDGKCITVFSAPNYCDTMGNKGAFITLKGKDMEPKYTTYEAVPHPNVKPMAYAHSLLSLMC
Test: pNPP phosphatase assay, dose-response, purified enzyme
Assay type: biochemical

SMILES	IC50 (read-out: IC50)	IC50
O=C1OC(=O)[C@H]2[C@@H]1[C@@H]1CC[C@H]2O1 [norcantharidin]	25.7 µM	–
O=C(O)[C@@H]1[C@H](C(=O)O)[C@H]2CC[C@@H]1O2 [endothall]	–	28.4 µM
C[C@@]12C(=O)OC(=O)[C@]1(C)[C@H]1CC[C@@H]2O1 [cantharidin]	–	3.19 µM
C=C1[C@@H](O)[C@@H]2O[C@]3(CC[C@H](/C=C/[C@@H](C)[C@@H]4CC(C)=C[C@@]5(O[C@H](C[C@@](C)(O)C(=O)O)CC[C@H]5O)O4)O3)CC[C@H]2O[C@@H]1[C@@H](O)C[C@H](C)[C@H]1O[C@@]2(CCCCO2)CC[C@H]1C [okadaic acid]	–	0.19 µM

Source: publication PMC3876124, “Identification and Biochemical Characterization of Protein Phosphatase 5 from the Cantharidin-Producing Blister Beetle, Epicauta chinensis” (International Journal of Molecular Sciences, 2013)
